# From patent US20060078622A1, “Pharmaceutical formulations containing microparticles or nanoparticles of a delivery agent” (priority 2004, published 2006)
# How the values were obtained:
# [1] = Particle size determination by laser diffraction (Malvern Mastersizer 2000); assay type: physicochemical
# Method: The terms “diameter” and “median particle size” are generally used to refer to the dimensions of particles, micro-beads, and granules. The “median particle size” or “diameter” was determined as follows for Examples 8, 9, 10.
# The Malvern Mastersizer 2000 determines particle size by laser diffraction and model fitting. A well-dispersed sample in any two-phase system (e.g., powders, suspensions, or emulsions) is introduced into the path of a He—Ne laser focused with a lens of a length suitable for particle sizes present in the sample. The scattering pattern of particles in the laser path is measured by an array of detectors, with each detector measuring data from a particular range of angles.
# The Malvern apparatus assumes that the particles being measured are perfect spheres. For non-spherical particles the resulting particle size distribution may be different from those obtained by methods based on others principles. The electronic measurements will often have to be accompanied by microscopic investigation to determine the type of particles being investigated. For irregularly shaped particles, the particle size data obtained from Mastersizer 2000 will be interpreted as the diameter of an imaginary sphere that is equivalent in volume to the measured particle. (Note: d(0.1) is the size of particle for which 10% of the sample is below this size, d(0.5) is the size of particle for which 50% of the sample is below this size, and d(0.9) is the size of particle for which 90% of the sample is below this size.
# Generally, this apparatus measures one dimension of a, e.g., particle as it travels past a laser; i.e., it measures the length of a straight line through the particle. […] However, a measurement is taken of a number of particles and a median diameter or size is calculated. Thus, “size” or “diameter” figures are estimates of the median “size” or “diameter” of particles. Alternatively, “diameter” or “size” was measured by a sieve method described in Example 1. “Diameter” should not be read to necessarily imply a spherical shape or a circular dimension, though in certain embodiments, e.g., particles may have rounded edges or generally spherical shapes.
# (§1) SNAD was screened through a 35 mesh Tyler standard sieve. The SNAD was milled with a Glen Mills, Model S100 centrifugal ball mill (Clifton, N.J.) equipped with a 250 mL stainless steel grinding jar and 30 mm (440 c) diameter stainless steel balls was used. The process parameters investigated were (1) number of balls used, (2) duration of milling, (3) milling speed, and (4) milling jar total charge. A Malvern Mastersizer 2000 equipped with a Scirocco 2000 dry accessory was used for particle size determination. A Kratos XRD 6000 (version 4.1) X-ray powder diffractometer scanning over the 2θ range 5-40° 2θ was used for monitoring crystallinity changes. The diverging, scattering, and receiving slits were 1°, 1°, and 0.3 mm respectively. A Brinkmann 737 KF coulometer was used for moisture content determination while a Quantachrome Nova 3000 Series Surface Area Analyzer was used for specific surface area determination.
# [2] = in vivo; cited from earlier work
# [3] = acid and salts; cited from earlier work
# [4] = X-ray powder diffraction and Karl Fischer moisture content after milling; assay type: physicochemical; conditions: ball milled
# Method: as §1, with “The diverging, scattering, and receiving slits were 1°, 1°, and 0.3 mm respectively.” left out
# [5] = ball milled, milling time of 120 minutes
structure (smiles),measurement,setting,value
"O=C([O-])CCCCCCCNC(=O)c1ccccc1O.[Na+] [SNAC, monosodium salt of N-(8-[2-hydroxybenzoyl]-amino)caprylic acid]",particle size d(0.5),"[1]; micronized, 2 balls at 200 rpm for 120 minutes",7.574 μm
"O=C(O)CCCCCCCCCNC(=O)c1ccccc1O [SNAD acid, N-(10-[2-hydroxybenzoyl]-amino) decanoic acid]",absorbed by the gastro-intestinal tract,[2],greater than 90%
"O=C(O)CCCCCCCNC(=O)c1cc(Cl)ccc1O [5 CNAC acid, N-(5-chlorosalicyloyl)-8-aminocaprylic acid]",water solubility,[3],very water soluble
"O=C([O-])CCCCCCCCCNC(=O)c1ccccc1O.[Na+] [SNAD, monosodium salt of N-(10-[2-hydroxybenzoyl]-amino)decanoic acid]",particle size d(0.9),[1]; ball milled at 300 rpm,62.9 μm
same,particle size d(0.1),"[1]; ball milled, 2 balls",1.1 μm
same,particle size d(0.5),"[1]; ball milled, 2 balls",12.0 μm
same,particle size d(0.9),"[1]; ball milled, 2 balls",154.3 μm
same,particle size d(0.1),[1]; [5],2.0 μm
same,particle size d(0.5),[1]; [5],15.4 μm
same,particle size d(0.9),[1]; [5],62.9 μm
same,particle size d(0.1),[1]; pre-screened (unmilled),1.6 μm
same,particle size d(0.5),[1]; pre-screened (unmilled),10.5 μm
same,particle size d(0.9),[1]; pre-screened (unmilled),314.9 μm
same,changes in moisture content on milling (Karl Fischer),[4],no significant changes in moisture content
same,crystallinity changes on milling (powder X-ray diffraction),[4],did not result in crystallinity changes
